Target: Serine/threonine-protein phosphatase PP1-alpha catalytic subunit (Homo sapiens) (UniProt P62136)
Assay: PP1alpha phosphatase inhibitors, phosphorylase substrate – biochemical, radiolabel, dose response, powder samples, set 2, orthogonal assay for PP1 inhibitor probe project, late-stage follow-up (AID 652227)
Details: purified PP1alpha, 32P/33P-phosphorylase dephosphorylation, scintillation

Serine/threonine-protein phosphatase PP1-alpha catalytic subunit (Homo sapiens), sequence (P62136 whole entry, looked up): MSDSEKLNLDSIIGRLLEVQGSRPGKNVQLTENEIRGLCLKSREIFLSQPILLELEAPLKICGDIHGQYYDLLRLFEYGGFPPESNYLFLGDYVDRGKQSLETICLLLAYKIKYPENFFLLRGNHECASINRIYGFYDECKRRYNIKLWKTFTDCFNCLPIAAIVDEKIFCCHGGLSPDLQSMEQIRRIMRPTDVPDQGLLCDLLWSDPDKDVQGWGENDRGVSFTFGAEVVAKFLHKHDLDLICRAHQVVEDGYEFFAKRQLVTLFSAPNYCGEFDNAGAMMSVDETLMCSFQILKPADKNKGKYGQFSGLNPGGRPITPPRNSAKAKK

Row | Compound | IC50 [µM]
1 | CCOC(=O)c1sc2nc3c(SCC(=O)O)cc(C(=O)c4cc(F)ccc4O)cn3c(=O)c2c1C | 8.54
2 | CN1CCN(C(c2ccccn2)c2cc(Cl)c3cccnc3c2O)CC1 (stereo not given) | 4.89
3 | N#Cc1c(-c2ccc(Cl)cc2)cc(-c2cccs2)nc1SCC(=O)O | 21.9
4 | COc1ccc(NC(=O)C2C3CCC(O3)C2C(=O)O)c(OC)c1 (stereo not given) | 18.9
5 | CCn1c2ccccc2c2cc(NC(=O)COC(=O)c3ccc(NC(=O)CC#N)cc3)ccc21 | 38
